Data on 13 compounds can be found in PMC7248956, “Discovery of Novel Imidazopyridine GSK-3β Inhibitors Supported by Computational Approaches” (Molecules, 2020).

Each structure is given as a SMILES string.

For the first test, the target named is T1, GSK-3β (Homo sapiens, UniProt P49841).
T1 sequence (P49841 whole entry): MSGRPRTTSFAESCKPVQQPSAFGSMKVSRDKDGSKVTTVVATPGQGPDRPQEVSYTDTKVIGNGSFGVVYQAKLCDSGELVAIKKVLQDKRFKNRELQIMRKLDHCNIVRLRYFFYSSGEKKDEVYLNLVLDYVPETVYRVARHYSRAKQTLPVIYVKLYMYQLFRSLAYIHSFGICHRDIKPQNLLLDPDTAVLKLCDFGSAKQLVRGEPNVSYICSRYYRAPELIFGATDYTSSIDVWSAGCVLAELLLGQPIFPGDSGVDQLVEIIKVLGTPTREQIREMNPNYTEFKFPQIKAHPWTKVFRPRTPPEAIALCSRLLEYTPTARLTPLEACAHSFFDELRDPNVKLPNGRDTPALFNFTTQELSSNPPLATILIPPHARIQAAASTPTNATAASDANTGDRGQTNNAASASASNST
Assay: not given
Also noted: method as in PMID 26486317, PMID 32435391. Conditions: INDZ derivatives 1–6, published ahead; cited from earlier work.
For orientation: IC50 means the point on the concentration scale where inhibition reaches its midpoint. Consider `COCCN1CCC(CNC(=O)c2n[nH]c3ccc(-c4cncc(OC(C)C)c4)cc23)CC1` [Compound 2], for which the IC50 is 9 nM.

Still in this test, the particulars now being: INDZ derivatives; cited from earlier work.
Consider `COCCN1CCC(CNC(=O)c2n[nH]c3ccc(-c4cncc(OC(C)C)c4)cc23)CC1` [Compound 2], for which the IC50 is 4 nM.

A further test has as its target T1, GSK-3β. The test can be described thus: in vitro GSK-3β inhibition assay. Format: biochemical. Conditions: IMID 1 and IMID 2 derivatives 7–18; average of duplicate wells. On the procedure:
Driven by the promising results, compounds 7–18 were synthesized as reported in Chemistry Section 2.1. Their biological activity was determined using an in vitro GSK-3β assay described elsewhere. […] In vitro MDCK-MDR1 permeability of IMID 1 and IMID 2 derivatives was also experimentally assessed (Table 1). […] In this respect, a decrease of TPSA was observed moving from INDZ 6 to the corresponding analogues 12 (IMID 1) and 18 (IMID 2), and from 3 to 15. The SAR analysis highlighted the detrimental impact of the positively charged piperidine ring of 2-8-14 triplet and derivative 13 on CNS permeability. […] When the piperidine was replaced with an oxanyl ring, while keeping the isopropoxypyridinyl group on the other side (2 vs. 4 and 8 vs. 10), a low CNS penetration was still observed, indicating a coexisting unfavorable contribution (high TPSA) of the R2 moiety to permeability. The comparison of the 4–10 pyridinyl derivatives with the corresponding 6–12 di-F-phenyl molecules confirmed an ameliorated BBB permeability when lipophilicity raises.
Consider `COCCN1CCC(CNC(=O)c2ncn3ccc(-c4cncc(OC(C)C)c4)cc23)CC1` [Compound 8, 7-(5-Isopropoxypyridin-3-yl)-N-((1-(2-methoxyethyl)piperidin-4-yl)methyl)imidazo[1,5-a]pyridine-1-carboxamide], for which it took 120 nM to reach half-maximal inhibition (IC50). Same read-out and setting: as for `CC(C)Oc1cncc(-c2ccc3cnc(C(=O)NCC4CCOCC4)n3c2)c1` [Compound 16, 6-(5-Isopropoxypyridin-3-yl)-N-((tetrahydro-2H-pyran-4-yl)methyl)imidazo[1,5-a]pyridine-3-carboxamide], the figure is 72 nM; as for `O=C(NCC1CCOCC1)c1ncn2ccc(-c3cccnc3)cc12` [Compound 9, 7-(Pyridin-3-yl)-N-((tetrahydro-2H-pyran-4-yl)methyl)imidazo[1,5-a]pyridine-1-carboxamide], 180 nM. As for `COCCN1CCC(CNC(=O)c2ncc3ccc(-c4cncc(OC(C)C)c4)cn23)CC1` [Compound 14, 6-(5-Isopropoxypyridin-3-yl)-N-((1-(2-methoxyethyl)piperidin-4-yl)methyl)imidazo[1,5-a]pyridine-3-carboxamide], the IC50 turned out to be 230 nM.

With `O=C(NCC1CCOCC1)c1ncn2ccc(-c3cccc(F)c3F)cc12` [Compound 12, 7-(2,3-Difluorophenyl)-N-((tetrahydro-2H-pyran-4-yl)methyl)imidazo[1,5-a]pyridine-1-carboxamide], the IC50 is 280 nM. Still for that read-out and setting: for `COCCN1CCC(CNC(=O)c2ncc3ccc(-c4cccnc4)cn23)CC1` [Compound 13, N-((1-(2-Methoxyethyl)piperidin-4-yl)methyl)-6-(pyridin-3-yl)imidazo[1,5-a]pyridine-3-carboxamide] the value was 370 nM; for `CC(C)Oc1cncc(-c2ccn3cnc(C(=O)NCC4CCOCC4)c3c2)c1` [Compound 10, 7-(5-Isopropoxypyridin-3-yl)-N-((tetrahydro-2H-pyran-4-yl)methyl)imidazo[1,5-a]pyridine-1-carboxamide], 200 nM; for `O=C(NCC1CCOCC1)c1ncc2ccc(-c3cccnc3)cn12` [Compound 15, 6-(Pyridin-3-yl)-N-((tetrahydro-2H-pyran-4-yl)methyl)imidazo[1,5-a]pyridine-3-carboxamide], 91 nM.

In the case of `O=C(NCC1CCOCC1)c1ncn2ccc(-c3cnccc3CO)cc12` [Compound 11, 7-(4-(Hydroxymethyl)pyridin-3-yl)-N-((tetrahydro-2H-pyran-4-yl)methyl)imidazo [1,5-a]pyridine-1-carboxamide], half-maximal inhibition (IC50) required 1400 nM. The same measure, in the same setting: as for `O=C(NCC1CCOCC1)c1ncc2ccc(-c3cnccc3CO)cn12` [Compound 17, 6-(4-(Hydroxymethyl)pyridin-3-yl)-N-((tetrahydro-2H-pyran-4-yl)methyl)imidazo[1,5-a]pyridine-3-carboxamide], the figure is 910 nM. Compound `O=C(NCC1CCOCC1)c1ncc2ccc(-c3cccc(F)c3F)cn12` [Compound 18, 6-(2,3-Difluorophenyl)-N-((tetrahydro-2H-pyran-4-yl)methyl)imidazo[1,5-a]pyridine-3-carboxamide] returned an IC50 of 240 nM. Same read-out and setting: as for `COCCN1CCC(CNC(=O)c2ncn3ccc(-c4cccnc4)cc23)CC1` [Compound 7, N-((1-(2-Methoxyethyl)piperidin-4-yl)methyl)-7-(pyridin-3-yl)imidazo[1,5-a]pyridine-1-carboxamide], the figure is 410 nM.
